The values that follow come from ChEMBL document CHEMBL1135335, “Multisubstrate analogue inhibitors of glucosamine-6-phosphate synthase from Candida albicans” (Bioorg Med Chem Lett, 2002).

As a reminder, the IC50 is the concentration that gives 50% inhibition. A lower IC50 goes with greater potency in that assay.

The source made the active and inactive calls. The calls are words filed in the database; no cut-off is given here.

System in the first assay: not listed separately
Nature of the assay: Concentration required to inhibit glucosamine-6-phosphate synthase (GFAT) isolated from Candida albicans.
`NC(CCCCP(=O)(O)O)C(=O)O` (configuration not stated) returned an IC50 of 250 µM.
Still for that read-out and setting: the value for `NC(CCCCCP(=O)(O)O)C(=O)O` (configuration not stated) [AP-7] was 270 µM; that for `NC(CP(=O)(O)O)C(=O)O` (configuration not stated) was 0.01 µM.
In turn, `NC(CCP(=O)(O)O)C(=O)O` (configuration not stated) showed an IC50 of 10 µM.
Same read-out and setting: the result for `O=C(O)[C@@H]1C[C@H](CP(=O)(O)O)CCN1` [SELFOTEL] reads 0.4 µM; that for `NC(CCCP(=O)(O)O)C(=O)O` (configuration not stated), 210 µM.

In a further assay the test system is Saccharomyces cerevisiae. Description: Inhibitory activity against glucosamine-6-phosphate synthase (GFAT) isolated from Saccharomyces cerevisiae at concentrations <10 mM; NI means no inhibition.
With `NC(CP(=O)(O)O)C(=O)O` (configuration not stated), the inhibition entry is “inactive”.
